From patent US7862798B2, “Vitamin-targeted imaging agents” (Endocyte, Inc., priority 2002, dated 2011)
Values joined by “and” are separate entries in the source; they are usually repeats but may differ in a detail not shown here. Equal entries are not always repeated. “Also recorded” adds a separate entry of the source.

Assays:
[1] = target: T1, folate receptor (FR) on KB cells (Homo sapiens, UniProt P15328); assay: Concentration-dependent cell uptake (Scatchard analysis); assay type: binding; settings: 2 hours at 37° C.
T1 construct: FR-positive KB cells were gently trypsinized; endogenous in cells; host or cells: KB cells
Method: KB cells were seeded in 12-well Falcon plates and allowed to form sub-confluent monolayers overnight. Following one rinse with 1 mL of fresh FERPMI/HIFCS, each well received 1 mL of FFRPMI/HIFCS containing increasing concentrations of ^99mTc-EC20. Cells were incubated for 2 hours at 37° C. and then rinsed four times with 1 mL of ice-cold PBS, pH 7.4. The monolayers were dissolved in 0.5 mL of PBS, pH 7.4 containing 1% sodium dodecyl sulfate for 15 min at room temperature and then counted for radioactivity using a Packard gamma counter. Protein content was determined as described above, and final tabulated values were expressed in terms of molecules of EC20 per cell.
The particular KB cells used were determined to bind a maximum of four million molecules of the folate radiopharmaceutical per cell.
This HPLC-purified radiolabeled material (Peak B material) was collected and then added to cultured KB cells.

[2] = Radiochemical stability by HPLC; assay type: physicochemical; settings: room temperature, protected from light, at least 24 hours
Method: The radiochemical stability of the radioactive drug substance was determined by HPLC after storing at room temperature protected from light for up to 24 hours. Samples of the ^99mTc-EC20 solution (20 μL) were analyzed using an HPLC system consisting of a Waters 600E Multisolvent Delivery System and 490 UV detector, a Bioscan EC-3200 radiodetector, Laura v1.5 radiochromatogram software, and a Waters Nova-Pak C18 (3.9×150 mm) column. Injected samples were eluted isocratically using an aqueous mobile phase containing 20% methanol and 0.1% trifluoroacetic acid at a flow rate of 1 mL/min. The HPLC analysis was monitored with both the UV detector (280 nm) and the gamma radiodetector.

Blood clearance = assay type: in vivo, Balb/c mice
Method: Animals used for this study were maintained on a folate-free diet (Harlan #TD-90261) for approximately three weeks prior to dose administration. […] Furthermore, previous studies have shown that mice placed on a folate-free diet for 3 weeks had maintained a safe serum folate level of 25±7 nM, which is slightly higher than the 9-14 nM concentration measurable in human serum.
The ^99mTc-EC20 solution was prepared on the day of use and had initially contained 100 μg of EC20 per milliliter. The solution was further diluted with sterile saline to prepare working stock solutions. The radiochemical purity of the product was estimated to be ˜94% by TLC. Each animal received a dose of 50 μg/kg EC20 (67 nmol/kg) in approximately 0.1 mL volume i.v. via the tail vein during brief diethyl ether anesthesia. At the designated times (see FIG. 8) post-injection, each animal was euthanized by CO2 asphyxiation, and blood was immediately collected by cardiac puncture.

FR-positive M109 tumors [3] = assay: Gamma scintigraphy; assay type: in vivo, Balb/c mice; settings: 4 hr after i.v. administration, M109 tumor-bearing Balb/c mouse
Method: Whole body image acquisition was performed for 1 minute at a count rate of 50-75,000 counts per minute using a Technicare Omega 500 Sigma 410 Radioisotope Gamma Camera. All data were analyzed using a Medasys MS-DOS-based computer equipped with Medasys Pinnacle software.

[4] = Urinary excretion and metabolism (HPLC speciation of urine); assay type: in vivo, Balb/c mice
Method: The urinary HPLC speciation profile of ^99mTc-EC20 was obtained using Balb/c mice. Mice (˜20 g each) were injected with 1 mCi (6.7 nmol) of ^99mTc-EC20 via a lateral tail vein. Following a 1, 4, or 6 hour time period, groups of two mice were euthanized by CO2 asphyxiation and urine was collected. After filtration through a GV13 Millex filter, the radiochemical speciation was assessed using an HPLC system equipped with a Nova-Pak C18 3.9×150 mm column and a radiochemical detector. The system was isocratically eluted with 20% methanol containing 0.1% TFA at a flow rate of 1 mL/minute.

[5] = Serum protein binding (ultrafiltration), human serum; assay type: in vitro ADME; settings: room temperature, ultrafiltration 30,000 NMWL
Method: Fresh rat serum, and commercial male human serum (type AB donors, Sigma Chemical Co.) were used to evaluate in vitro binding of ^99mTc˜EC20 to serum proteins. One minute after ^99mTc-EC20 was mixed with 1 mL of serum at room temperature, 0.3 mL of the serum solution was transferred to a clean Amicon Centrifree® ultrafiltration device (30,000 NMWL) in triplicate. Within one minute of loading the centrifuge with the serum solution, the device was spun at 1000×g for 20 minutes at 20° C. 50 μL samples of the original solution, and of the filtrate from each device, was transferred to a clean tube and counted in an automatic gamma counter. A control solution of ^99mTc˜EC20 mixed with 1 mL of normal saline was ultrafiltered in an identical fashion. The percentage of free ^99mTc was calculated for each of the three samples.

FR-positive M109 tumors [6] = assay: Tissue distribution, subcutaneous M109 tumors (Example 11)
Method: The ability of ^99mTc-EC20 to target tumors in vivo was assessed using a FR-positive M109 model.
Four to five week-old mice (Balb/c strain) were purchased from Harlan Sprague Dawley, Inc. (Indianapolis, Ind.) and were maintained on a folate-free diet for a total of three weeks prior to the experiment. Syngeneic, FR-positive M109 tumor cells (1×10^6 per animal) were inoculated in the subcutis of the right axilla two weeks prior to the experiment.
Animals received an approximate 40 μmol/kg i.v. dose of test article in 100 μL volume via a lateral tail vein during brief diethyl ether anesthesia. Four hours post-injection, animals were sacrificed by CO2 asphyxiation, and dissected. Selected tissues were removed, weighed, and counted to determine ^99mTc distribution. CPM values were decay-corrected, and results were tabulated as % injected dose per gram of wet weight tissue.

[7] = 4 hr post i.v., + Folic acid (100 equivalents)
[8] = 4 hr post intravenous injection

T1 sequence (P15328 25-234): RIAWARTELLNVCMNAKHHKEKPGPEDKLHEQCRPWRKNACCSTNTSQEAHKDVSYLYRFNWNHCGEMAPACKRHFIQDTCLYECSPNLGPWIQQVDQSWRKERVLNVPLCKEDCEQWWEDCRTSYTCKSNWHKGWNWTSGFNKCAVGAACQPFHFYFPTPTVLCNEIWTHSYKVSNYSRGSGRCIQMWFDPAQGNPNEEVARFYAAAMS

SMILES: [NH-][C@@H](CNC(=O)CC[C@@H](NC(=O)c1ccc(NCc2cnc3nc(N)[nH]c(=O)c3n2)cc1)C(=O)O)C(=O)[N-][C@@H](CC(=O)O)C(=O)[N-][C@@H](C[S-])C(=O)O.[O]=[Tc+4] [^99mTc-EC20]
- maximum molecules bound per cell [1]: four million
- Kd ([1]; read-out: KD of binding (Scatchard analysis)): 3.2 nM
- radiochemical purity on storage [2]: greater than 90%
- plasma half life (Blood clearance; 50 μg/kg EC20 i.v., Balb/c mouse): ~4 min
- injected dose remaining in circulation (Blood clearance; after four hours, blood assumed 5.5% of body mass): less than 0.2%
- whole-body gamma image, localization of radiotracer (FR-positive M109 tumors [3]): localizes the gamma radiation to the two kidneys (K) and the M109 tumor mass; also recorded: Only the kidneys (K) and tumor (T) exhibit significant accumulation
- form excreted into the urine ([4]; Balb/c mice, i.v.): predominately excreted into the urine in an unmodified form
- proportion of parent drug among radioactive species recovered in urine ([4]; throughout four hours post-injection): approximately 90%
- Area Percent, Sum C and D (intact 99mTc-EC20) ([4]; urine samples, 1 hr, two mice): 89.2 Area Percent and 91.1 Area Percent
- Area Percent, peak A (pertechnetate) ([4]; urine samples, 1 hr, two mice): 8.3 Area Percent and 6.3 Area Percent
- Area Percent, peak B (unknown) ([4]; urine samples, 1 hr, two mice): 2.5 Area Percent and 2.6 Area Percent
- Area Percent, peak C (isomer 1) ([4]; urine samples, 1 hr, two mice): 20.4 Area Percent and 18.1 Area Percent
- Area Percent, peak D (isomer 2) ([4]; urine samples, 1 hr, two mice): 68.8 Area Percent and 73 Area Percent
- Area Percent, Sum C and D (intact 99mTc-EC20) ([4]; urine samples, 4 hr, two mice): 85.2 Area Percent and 89.8 Area Percent
- Area Percent, peak A (pertechnetate) ([4]; urine samples, 4 hr, two mice): 9.4 Area Percent and 10.2 Area Percent
- Area Percent, peak C (isomer 1) ([4]; urine samples, 4 hr, two mice): 7.3 Area Percent and 11.1 Area Percent
- Area Percent, peak D (isomer 2) ([4]; urine samples, 4 hr, two mice): 77.9 Area Percent and 78.7 Area Percent
- associated with the >30 kDa serum protein fraction [5]: 72%
- Blood (FR-positive M109 tumors [6]; [7]): 0.09 ± 0.02 % Injected Dose per Gram Tissue
- Heart (FR-positive M109 tumors [6]; [7]): 0.08 ± 0.01 % Injected Dose per Gram Tissue
- Intestine (FR-positive M109 tumors [6]; [7]): 2.93 ± 1.49 % Injected Dose per Gram Tissue
- Kidney (FR-positive M109 tumors [6]; [7]): 5.64 ± 2.13 % Injected Dose per Gram Tissue
- Liver (FR-positive M109 tumors [6]; [7]): 1.15 ± 0.22 % Injected Dose per Gram Tissue
- Lung (FR-positive M109 tumors [6]; [7]): 0.31 ± 0.26 % Injected Dose per Gram Tissue
- Muscle (FR-positive M109 tumors [6]; [7]): 0.06 ± 0.02 % Injected Dose per Gram Tissue
- Spleen (FR-positive M109 tumors [6]; [7]): 0.38 ± 0.33 % Injected Dose per Gram Tissue
- Stomach (FR-positive M109 tumors [6]; [7]): 3.35 ± 5.19 % Injected Dose per Gram Tissue
- Tumor (FR-positive M109 tumors [6]; [7]): 0.45 ± 0.18 % Injected Dose per Gram Tissue
- Tumor/Blood (FR-positive M109 tumors [6]; [7]): 4.70 ± 1.30
- Blood (FR-positive M109 tumors [6]; [8]): 0.34 ± 0.03 % Injected Dose per Gram Tissue
- Heart (FR-positive M109 tumors [6]; [8]): 1.57 ± 0.26 % Injected Dose per Gram Tissue
- Intestine (FR-positive M109 tumors [6]; [8]): 2.56 ± 0.61 % Injected Dose per Gram Tissue
- Kidney (FR-positive M109 tumors [6]; [8]): 138 ± 12.4 % Injected Dose per Gram Tissue
- Liver (FR-positive M109 tumors [6]; [8]): 3.56 ± 0.25 % Injected Dose per Gram Tissue
- Lung (FR-positive M109 tumors [6]; [8]): 2.22 ± 0.63 % Injected Dose per Gram Tissue
- Muscle (FR-positive M109 tumors [6]; [8]): 0.67 ± 0.20 % Injected Dose per Gram Tissue
- Spleen (FR-positive M109 tumors [6]; [8]): 0.95 ± 0.15 % Injected Dose per Gram Tissue
- Stomach (FR-positive M109 tumors [6]; [8]): 1.45 ± 0.55 % Injected Dose per Gram Tissue
